Assay results published in US20230174660A1, “USE OF A MULTIMERIC ANTI-DR5 BINDING MOLECULE IN COMBINATION WITH A CANCER THERAPY FOR TREATING CANCER” (IGM Biosciences, Inc., priority 2020, published 2023).
Where two headings read alike, the source gives them in different places.

Assays:
OCI-LY7 = test: Cell Titer Glo viability, Mab A + chemotherapeutic/targeted agent (Example 9); settings: combination with Mab A; OCI-LY7 (NHL); 72 hours
U-937 [1] = test: as above; settings: 72 hours; for Average Bliss score: combination with Mab A, U-937 (NHL)
WSU-DLCL2 = test: as above; assay type: cell-based; settings: 72 hours; for Average Bliss score: combination with Mab A, WSU-DLCL2 (NHL)
Toledo = test: as above; assay type: cell-based; settings: combination with Mab A; Toledo (NHL); 72 hours
DOHH-2 = test: as above; settings: combination with Mab A; DOHH-2 (NHL); 72 hours
Karpas-422 = test: as above; assay type: cell-based; settings: combination with Mab A; Karpas-422 (NHL); 72 hours
[2] = tested on: primary human hepatocytes; test: as above; assay type: cell-based; settings: 72 hours
U-937 [3] = tested on: U-937
OVCAR-4 = test: Cell Titer Glo viability, Mab A + SMAC mimetics (Example 13); assay type: cell-based; settings: SMAC mimetic in combination with Mab A
Description: (§1) Synergy was determined as described in earlier examples. The average Bliss synergy scores for combinations of Mab A and SMAC mimetic on the various tumor cell lines are shown in Table 15.

HT 1080 = test: as above; assay type: cell-based; settings: SMAC mimetic in combination with Mab A
Description: as §1

SK-MEL-5 = test: as above; assay type: cell-based; settings: SMAC mimetic in combination with Mab A
Description: as §1

SW1353 = test: as above; assay type: cell-based; settings: SMAC mimetic in combination with Mab A
Description: as §1

HCT 116 = test: as above; assay type: cell-based; settings: SMAC mimetic in combination with Mab A
Description: as §1

EBC-1 = test: as above; assay type: cell-based; settings: SMAC mimetic in combination with Mab A
Description: as §1

[4] = tested on: DR5 agonist-resistant MDA-MB-231 cells; test: Cell Titer Glo viability, Mab A + SMAC mimetic on DR5 agonist-resistant tumor cells (Example 8); assay type: cell-based
MDA-MB-231 tumor cells = test: Cell Titer Glo viability, Mab A + SMAC mimetic (Example 7); settings: MDA-MB-231 cells; 72 hours
HT1080 = test: Cell Titer Glo viability, Mab A + chemotherapeutic agent, Bliss synergy (Example 1); assay type: cell-based; settings: combination with anti-DR5 IgM Mab A; HT1080, Connective tissue Fibrosarcoma; 72 hours
MV411 = test: as above; assay type: cell-based; settings: combination with anti-DR5 IgM Mab A; MV411, Blood (Leukemia) Acute myelogenous leukemia; 72 hours
MOLM13 = test: as above; assay type: cell-based; settings: combination with anti-DR5 IgM Mab A; MOLM13, Blood (Leukemia) Acute myelogenous leukemia; 72 hours
LOUNH91 = test: as above; assay type: cell-based; settings: combination with anti-DR5 IgM Mab A; LOUNH91, Lung Squamous cell carcinoma; 72 hours
NCIH460 = test: as above; assay type: cell-based; settings: combination with anti-DR5 IgM Mab A; NCIH460, Lung, Non-small cell; 72 hours
NCIH508 = test: as above; assay type: cell-based; settings: combination with anti-DR5 IgM Mab A; NCIH508, Colorectal Caecum Adenocarcinoma; 72 hours
HCT15 = test: as above; assay type: cell-based; settings: combination with anti-DR5 IgM Mab A; HCT15, Colorectal adenocarcinoma; 72 hours
HT55 = test: as above; assay type: cell-based; settings: combination with anti-DR5 IgM Mab A; HT55, Colorectal Carcinoma; 72 hours
NCIH2228 = test: as above; assay type: cell-based; settings: combination with anti-DR5 IgM Mab A; NCIH2228, Lung, Non-small cell; 72 hours
PANC1 = test: as above; assay type: cell-based; settings: combination with anti-DR5 IgM Mab A; PANC1, Pancreas Ductal Adenocarcinoma, exocrine; 72 hours
NUGC4 = test: as above; assay type: cell-based; settings: combination with anti-DR5 IgM Mab A; NUGC4, Gastric Adenocarcinoma; 72 hours
NCIN87 = test: as above; assay type: cell-based; settings: combination with anti-DR5 IgM Mab A; NCIN87, Gastric Adenocarcinoma, tubular; 72 hours
BXPC3 = test: as above; assay type: cell-based; settings: combination with anti-DR5 IgM Mab A; BXPC3, Pancreas adenocarcinoma; 72 hours
SNU5 = test: as above; assay type: cell-based; settings: combination with anti-DR5 IgM Mab A; SNU5, Gastric Adenocarcinoma; 72 hours
UMUC3 = test: as above; assay type: cell-based; settings: combination with anti-DR5 IgM Mab A; UMUC3, Bladder Transitional Cell Carcinoma; 72 hours
ASPC1 = test: as above; assay type: cell-based; settings: combination with anti-DR5 IgM Mab A; ASPC1, Pancreas Ductal adenocarcinoma; 72 hours
[5] = tested on: primary human hepatocytes; test: as above; assay type: cell-based; settings: combination with anti-DR5 IgM Mab A, Liver, 72 hours
Colo205 tumor cells = test: Colo205 subcutaneous tumor model in NCr nude mice (Examples 2-5, 14); assay type: in vivo; settings: study termination on day 100; paclitaxel 25 mg/kg i.v. 5 doses, alone or with Mab A 5 mg/kg i.v. 7 doses

COc1ccccc1-c1nccc(COc2ccccc2C[C@H](Oc2ncnc3sc(-c4ccc(F)cc4)c(-c4ccc(OCCN5CCN(C)CC5)c(Cl)c4C)c23)C(=O)O)n1 (atropisomer, axis not shown) [MIK665, MIK665/S-64315]
Average Bliss score (OCI-LY7): 3.5 | Average Bliss score (U-937 [1]): 4.8 | single agent cytotoxicity (cell viability curves) (WSU-DLCL2; WSU-DLCL2 cells): complete cytotoxicity | Average Bliss score (WSU-DLCL2): 16 | Average Bliss score (Toledo): 6.7 | Average Bliss score (DOHH-2): 3.1 | Average Bliss score (Karpas-422): 3.7 | cytotoxicity in primary human hepatocytes [2]: causes cytotoxicity | single agent cytotoxicity (cell viability curves) (U-937 [3]): complete cytotoxicity

CN[C@@H](C)C(=O)N[C@H]1CN(S(=O)(=O)c2cccc(S(=O)(=O)N3CC[C@H]4CC[C@@H](C(=O)NC(c5ccccc5)c5ccccc5)N4C(=O)[C@@H](NC(=O)[C@H](C)NC)C3)c2)CC[C@H]2CC[C@@H](C(=O)NC(c3ccccc3)c3ccccc3)N2C1=O [APG-1387]
Average Bliss score (OVCAR-4): 10 | Average Bliss score (HT 1080): 38 | Average Bliss score (SK-MEL-5): 7 | Average Bliss score (SW1353): −3 | Average Bliss score (HCT 116): 34 | Average Bliss score (EBC-1): 47

C[C@@H]1CN(CC(=O)N2CC(C)(C)c3nc(CO)c(Cc4ccc(F)cc4)cc32)[C@@H](CN2CCOC[C@H]2C)CN1 [ASTX660]
Average Bliss score (OVCAR-4): 9 | Average Bliss score (HT 1080): 20 | Average Bliss score (SK-MEL-5): 11 | Average Bliss score (SW1353): −2 | Average Bliss score (HCT 116): 29 | Average Bliss score (EBC-1): 17

CN[C@@H](C)C(=O)N[C@H]1CN(C(=O)CC(C)C)CC[C@H]2CC[C@@H](C(=O)NC(c3ccccc3)c3ccccc3)N2C1=O [Debio 1143]
Average Bliss score (OVCAR-4): 3 | Average Bliss score (HT 1080): 12 | Average Bliss score (SK-MEL-5): 4 | Average Bliss score (SW1353): −1 | Average Bliss score (HCT 116): 19 | Average Bliss score (EBC-1): 23

CN[C@@H](C)C(=O)N[C@H](C(=O)N1CCC[C@H]1C(=O)Nc1snnc1-c1ccccc1)C1CCCCC1 [GDC-0152, GDC-0152/RG-7419]
single agent cytotoxicity (cell viability curves) [4]: little to no cytotoxicity | single agent cytotoxicity (cell viability curves) (MDA-MB-231 tumor cells): little to no cytotoxicity

COc1cccc2c1C(=O)c1c(O)c3c(c(O)c1C2=O)C[C@@](O)(C(=O)CO)C[C@@H]3O[C@H]1C[C@H](N)[C@H](O)[C@H](C)O1 [doxorubicin, Doxorubicin]
Average Bliss score (HT1080): 1.5 | Average Bliss score (MV411): 7.1 | Average Bliss score (MOLM13): 5.2 | Average Bliss score (LOUNH91): 12 | Average Bliss score (NCIH460): 4 | Average Bliss score (NCIH508): 1.3 | Average Bliss score (HCT15): 10 | Average Bliss score (HT55): 1.6 | Average Bliss score (NCIH2228): 16 | Average Bliss score (PANC1): 7.3 | Average Bliss score (NUGC4): 8.9 | Average Bliss score (NCIN87): 12 | Average Bliss score (BXPC3): 1.5 | Average Bliss score (SNU5): 12 | Average Bliss score (UMUC3): 8.8 | Average Bliss score (ASPC1): −0.63 | Average Bliss score [5]: 0.94

COc1cc([C@@H]2c3cc4c(cc3[C@@H](O[C@@H]3O[C@@H]5CO[C@@H](C)O[C@H]5[C@H](O)[C@H]3O)[C@H]3COC(=O)[C@H]23)OCO4)cc(OC)c1O [etoposide, Etoposide]
Average Bliss score (HT1080): 3.6 | Average Bliss score (LOUNH91): 16 | Average Bliss score (NCIH460): 3.6 | Average Bliss score (NCIH508): −0.99 | Average Bliss score (HCT15): 15 | Average Bliss score (HT55): 5.1 | Average Bliss score (NCIH2228): 14 | Average Bliss score (PANC1): 10 | Average Bliss score (NUGC4): −2.3 | Average Bliss score (NCIN87): 17 | Average Bliss score (BXPC3): 2.2 | Average Bliss score (SNU5): 3.6 | Average Bliss score (ASPC1): 5.2

CC[C@H](Nc1ncnc2nc[nH]c12)c1nc2cccc(F)c2c(=O)n1-c1ccccc1 [idelalisib, Idelalisib]
Average Bliss score (OCI-LY7): −1.8 | Average Bliss score (U-937 [1]): 2.7 | Average Bliss score (WSU-DLCL2): −7.4 | Average Bliss score (Toledo): −1.6 | Average Bliss score (DOHH-2): −0.89 | Average Bliss score (Karpas-422): −3.2

CC(=O)O[C@H]1C(=O)[C@@]2(C)[C@H]([C@H](OC(=O)c3ccccc3)[C@]3(O)C[C@H](OC(=O)[C@H](O)[C@@H](NC(=O)c4ccccc4)c4ccccc4)C(C)=C1C3(C)C)[C@]1(OC(C)=O)CO[C@@H]1C[C@@H]2O [paclitaxel, Paclitaxel]
animals with no visible tumors (tumor-free) (Colo205 tumor cells): 2 out of 10 | Average Bliss score (HT1080): 2.7 | Average Bliss score (LOUNH91): 9.7 | Average Bliss score (NCIH460): 4.7 | Average Bliss score (NCIH508): 8.4 | Average Bliss score (HCT15): 7.6 | Average Bliss score (HT55): 6.2 | Average Bliss score (NCIH2228): 15 | Average Bliss score (PANC1): 15 | Average Bliss score (NUGC4): 7 | Average Bliss score (NCIN87): 13 | Average Bliss score (BXPC3): 3.8 | Average Bliss score (SNU5): 2.8 | Average Bliss score (UMUC3): 6.3 | Average Bliss score (ASPC1): 14 | Average Bliss score [5]: 5.3

CC[C@]1(O)C[C@H]2CN(CCc3c([nH]c4ccccc34)[C@@](C(=O)OC)(c3cc4c(cc3OC)N(C=O)[C@H]3[C@@](O)(C(=O)OC)[C@H](OC(C)=O)[C@]5(CC)C=CCN6CC[C@]43[C@@H]65)C2)C1 [vincristine, Vincristine]
single agent cytotoxicity (cell viability curves) (U-937 [1]; U-937 cells): strong cytotoxicity
